Measured values: publication PMC12507958, “Modification of human metallothioneins by garlic organosulfur compounds, allicin and ajoene: direct effect on zinc homeostasis with relevance to immune regulation” (Biometals, 2025)

Experiments:
Format in all cases: binding
[1] = molecular target: T1, MT3 (Homo sapiens, UniProt P25713); experiment: Zn(II) release followed with PAR at […] nm; details: 1 uM Zn(II)-loaded MT, 80 uM allicin, 200 uM PAR, 50 mM HEPES, 100 mM NaCl, pH 7.4, 25 °C; covalent (Cys S-thioallylation)
T1 construct: full-length recombinant, intein/chitin tag (pTYB21) cleaved by DTT, from E. coli BL21(DE3)pLysS; Zn7-loaded
T1 sequence (P25713 whole entry): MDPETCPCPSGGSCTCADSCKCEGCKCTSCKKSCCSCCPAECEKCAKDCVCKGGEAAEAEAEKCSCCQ

[2] = molecular target: T2, MT1a (Homo sapiens, UniProt P04731); experiment: Zn(II) release followed with PAR at […] nm; details: 1 uM Zn(II)-loaded MT, 80 uM allicin, 200 uM PAR, 50 mM HEPES, 100 mM NaCl, pH 7.4, 25 °C; covalent (Cys S-thioallylation)
T2 construct: full-length recombinant, intein/chitin tag (pTYB21) cleaved by DTT, from E. coli BL21(DE3)pLysS; Zn7-loaded
T2 sequence (P04731 whole entry): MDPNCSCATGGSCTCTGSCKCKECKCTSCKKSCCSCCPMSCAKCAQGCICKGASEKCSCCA

[3] = molecular target: T3, MT2 (Homo sapiens, UniProt P02795); experiment: Zn(II) release followed with PAR; adducts by ESI-MS and top-down MS; details: 1 uM Zn(II)-loaded MT2, 80 uM allicin, 100 uM PAR, 50 mM HEPES, 100 mM NaCl, pH 7.4; covalent (S-thioallylation, Cys within residues 19-30)
T3 construct: gene MT2A; full-length recombinant, intein/chitin tag (pTYB21) cleaved by DTT, from E. coli BL21(DE3)pLysS; Zn7-loaded (Zn7MT2)
T3 sequence (P02795 whole entry, the tested form may be a part): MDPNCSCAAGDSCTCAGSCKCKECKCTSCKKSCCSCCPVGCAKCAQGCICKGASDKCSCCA

[4] = molecular target: T4, MT4 (Homo sapiens, UniProt P47944); experiment: Zn(II) release followed with PAR at […] nm; details: 1 uM Zn(II)-loaded MT, 80 uM allicin, 200 uM PAR, 50 mM HEPES, 100 mM NaCl, pH 7.4, 25 °C; covalent (Cys S-thioallylation)
T4 construct: full-length recombinant, intein/chitin tag (pTYB21) cleaved by DTT, from E. coli BL21(DE3)pLysS; Zn7-loaded
T4 sequence (P47944 whole entry): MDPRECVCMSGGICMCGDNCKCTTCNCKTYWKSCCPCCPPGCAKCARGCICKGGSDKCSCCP

[5] = molecular target: T3, MT2; experiment: Zn(II) release followed with PAR; adducts by ESI-MS and top-down MS; details: 1 uM Zn(II)-loaded MT2, 80 uM ajoene, 100 uM PAR, 50 mM HEPES, 100 mM NaCl, pH 7.4, 25 °C; covalent (Cys within residues 29-53)

Zn(II) mol. eq. dissociated after 60 min [1] | Zn(II) mol. eq. dissociated after 60 min [2] | Zn(II) mol. eq. dissociated after 1 h [3] | Zn(II) mol. eq. dissociated after 60 min [4] | Zn(II) mol. eq. dissociated after 60 min [5] | Structure (SMILES)
5.2 mol. eq. | 5 mol. eq. | 5.3 mol. eq. | 2.8 mol. eq. | – | C=CCS[S+]([O-])CC=C (centres unmarked) [allicin]
– | – | – | – | almost 6 | C=CCSSC=CC[S+]([O-])CC=C (centres unmarked) [ajoene]
